Data on five molecules can be found in patent publication US20230414610A1, “THERAPIES FOR CANCER USING SMALL MOLECULES THAT BIND TO AND INHIBIT RAIL INTERACTING PROTEINS” (Texas Tech University System, priority 2020, published 2023).

Each structure is given as a SMILES string.

This test relates to breast cancer cells. As to the kind of experiment: Breast cancer cell inhibition in vitro. Format: cell-based. The following applies: by inhibiting RLIP.
`O=c1cc(COc2cccc(-n3cnnn3)c2)c2ccccc2[nH]1` [TTUHSC-SS-C2]: the “killing of breast cancer cells” value is “kill breast cancer cells at low concentrations”. The value for `N#Cc1nc(-c2ccccn2)c2c(c1-c1ccccc1)CCC2` [TTUHSC-SS-E4] was “kill breast cancer cells at low concentrations”; that for `[H]/N=C(\N)Nc1nc(-c2ccccc2)c2cc(F)ccc2n1` [TTUHSC-SS-B9] was “kill breast cancer cells at low concentrations”; that for `c1ccc(-c2nnc(NCc3nc4ccccc4[nH]3)c3ccccc23)cc1` [TTUHSC-SS-C4] was “kill breast cancer cells at low concentrations”. The value for `O=C(N/N=C1/c2ccccc2-c2nc3nonc3nc21)c1ccccc1O` [TTUHSC-SS-A4] was “kill breast cancer cells at low concentrations”.
